Measured values reported in patent US20200316087A1, “NOVEL COMBINATION THERAPY FOR ANXIETY DISORDERS, EPILEPSY, AND PAIN” (priority 2017, published 2020).

What was measured:
[1] = system: electroshock-induced seizures; assay: Mouse electroshock-induced seizure model; format: in vivo; settings: mice; for Electroshock to Criteria: MED producing maximal protection (0% seizures); for Electroshock (minimal effective dose, MED): lowest dose with statistically significant protection vs vehicle
Description: This assay detects effects of compounds that produce generalized seizures and those that dampen seizure spread. Male, CD1 mice (Taconic Farms) were studied at weights of 21-32 g. Mice=10/dose) were used with Wahlquist Model H stimulator with 0.2 sec stimulation with corneal electrodes. […] Mice were euthanized immediately following the test. Tonic extension was used as the primary endpoint.
For the in vivo assays, minimal effective doses (MED) were calculated in mg/kg. MED was defined as the lowest dose administered that produced statistically significant protection compared to vehicle control in the anticonvulsant assays. The MED, or minimal toxic dose (MTD) for motor impairment, was the minimal dose required to produce statistically-significant impairment in motor performance. Doses tested are shown in the figures and tables and are generally dosed in ½ log increments. The protective index (PT) was calculated at the MTD/MED.

[2] = system: resected human cortical tissue from epileptic patients; assay: Human epileptic cerebral cortex slice electrophysiology; format: cell-based; settings: 30 μM
Description: The tissue was prepared and treated as previously described (Zwart et al., J. Pharmacal. Exp. Ther., 2014, 351:124-133). Slices were maintained at 37° C. and were perfused at 1.0 ml/min first with normal ACSF (NACSF) solution for one hour to see if the tissue was spontaneously active. […] Tissue was then recorded in EACSF with a concentration of 10 μM picrotoxin for 1 hr. Subsequently, tissue was recorded in EACSF with a concentration of 10 μM of picrotoxin with 30 μM KRM-II-81 and recorded for 1 hour. Following the KRM-II-81 addition, tissue was recorded in a washout solution of EACSF and 10 μM Picrotoxin for 1 hr. The concentration of KRM-II-81 was based upon data collected in human cortical slices with perampanel and upon the need to be conservative in concentration estimates to maximize the opportunity to see an effect given limited human tissue opportunities. A second experiment was conducted using […] (50 μM) as an activator instead of picrotoxin.
Recordings were performed on microelectrode arrays of 60 electrodes as previously described (Zwart et al., J Pharmacol. Exp. Ther., 2014, 351:124-133). LFPs with sharp negative peaks below a threshold set at 3 standard deviations of the signal were marked, and the time of the maximum excursion was recorded as the time of that LFP. Time points were binned at 4 ms. […]

[3] = system: punished licking (anxiety); assay: Vogel conflict test; format: in vivo; settings: rats
Description: Experiments are conducted as described in the protocol of Alt et al. (Neuropharmacology 2007, 52, 1482-1487). Experimentally-naive adult male Sprague-Dawley rats (Harlan Industries, Indianapolis, Ind.), weighing between 200 and 300 g, are used as subjects. The rats are housed in Plexiglas cages (4 per cage) and given free access to Lab Diet #5001 for rodents (PMI Nutrition International Inc., St. Louis, Mo.). Water is withheld for 20-24 hours prior to the first training session. A 12-hr light/dark cycle is maintained, and all experimental sessions are conducted during the light phase of the cycle at about the same time each day.
The experiments are conducted using operant behavior test chambers ENV-007 (Med Associates Inc., Georgia, Vt., USA), 30.5×24.1×29.2 cm. […] All events are controlled and licking data is recorded by a Compaq computer running MED-PC Version IV (Med Associates Inc., Georgia, Vt., USA).
Rats are put into the chamber on day 1 and 2 with white noise and the houselight illuminated, and allowed to drink for a total of six minutes after the first lick is made. The six minutes is broken into two components, the first three minutes is recorded as the unpunished component and the second three minutes are recorded as the punished component. […]
The mean number of licks for both the unpunished and punished components are analyzed. […]

Structure (SMILES) | Electroshock to Criteria [1] | Electroshock (minimal effective dose, MED) [1] | protection against electroshock-induced seizures [1] | firing rate ([2]; firing stimulated with AP-4 (50 μM), baseline 0.08±0.01) | average firing rate ([2]; in presence of 10 μM picrotoxin, baseline 0.05±0.01 Hz) | anxiolytic-like efficacy in Vogel conflict test [3]
C#Cc1ccc2c(c1)C(c1ccccn1)=NCc1c(-c3cnco3)ncn1-2 [KRM-II-81, 5-(8-ethynyl-6-(pyridin-2-yl)-4H-benzo[f]imidazo[1,5-a][1,4]diazepin-3-yl)oxazole] | 30 mg/kg | 10 mg/kg | fully prevented | 0.01±0.005 Hz | 0.01±0.005 Hz | 
C#Cc1ccc2c(c1)C(c1ccccc1)=NCc1c(-c3cnco3)ncn1-2 [KRM-II-82, 5-(8-ethynyl-6-phenyl-4H-benzo[f]imidazo[1,5-a][1,4]diazepin-3-yl)oxazole] | 30 mg/kg | 30 mg/kg | fully prevented |  |  | did not produce anxiolytic-like efficacy
